The text below walks through data of ChEMBL document CHEMBL2401706, “An atom economic synthesis and AChE inhibitory activity of novel dispiro 7-aryltetrahydro-1H-pyrrolo[1,2-c][1,3]thiazole and 4-aryloctahydroindolizine N-methylpiperidin-4-one hybrid heterocycles” (Eur J Med Chem, 2013).

The IC50 is the concentration that gives 50% inhibition. Low readings indicate higher potency, high ones lower potency.

The target in this assay is Acetylcholinesterase (Electrophorus electricus, UniProt O42275). Briefly: Inhibition of electric eel AChE after 30 mins by Ellman's method. (In general: Ellman's reagent forms a yellow product with free thiols.)
Sequence of Acetylcholinesterase (O42275 whole entry): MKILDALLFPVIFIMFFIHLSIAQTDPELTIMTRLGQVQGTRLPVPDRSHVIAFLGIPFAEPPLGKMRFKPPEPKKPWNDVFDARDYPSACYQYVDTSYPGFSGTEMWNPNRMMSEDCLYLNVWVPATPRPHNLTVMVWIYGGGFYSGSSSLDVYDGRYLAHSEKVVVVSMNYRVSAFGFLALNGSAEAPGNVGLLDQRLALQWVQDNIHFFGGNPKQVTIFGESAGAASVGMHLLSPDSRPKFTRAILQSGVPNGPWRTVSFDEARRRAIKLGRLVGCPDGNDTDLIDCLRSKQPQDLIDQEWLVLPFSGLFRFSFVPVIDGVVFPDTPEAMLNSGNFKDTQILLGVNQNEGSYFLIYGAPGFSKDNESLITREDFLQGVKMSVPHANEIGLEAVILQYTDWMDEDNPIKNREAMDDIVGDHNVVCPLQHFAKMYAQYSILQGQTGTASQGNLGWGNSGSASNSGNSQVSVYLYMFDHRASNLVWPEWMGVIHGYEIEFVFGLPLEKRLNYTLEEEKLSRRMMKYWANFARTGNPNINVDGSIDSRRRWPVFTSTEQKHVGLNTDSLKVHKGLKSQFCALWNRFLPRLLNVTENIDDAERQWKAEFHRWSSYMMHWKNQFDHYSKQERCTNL

With `CN1C/C(=C\c2ccccc2F)C(=O)[C@]2(C1)[C@@H](c1ccccc1F)[C@@H]1CCCCN1[C@@]21C(=O)c2cccc3cccc1c23`, the IC50 was 34.2 µM. This counts as double-digit micromolar. Under `COc1ccccc1/C=C1\CN(C)C[C@@]2(C1=O)[C@@H](c1ccccc1OC)[C@@H]1CCCCN1[C@@]21C(=O)c2cccc3cccc1c23` stands 11.6 µM. Under `CN1C/C(=C\c2ccccc2Br)C(=O)[C@]2(C1)[C@@H](c1ccccc1Br)[C@@H]1CCCCN1[C@@]21C(=O)c2cccc3cccc1c23` stands 38.3 µM; under `CN1C/C(=C\c2cccc(F)c2)C(=O)[C@]2(C1)[C@@H](c1cccc(F)c1)[C@@H]1CCCCN1[C@@]21C(=O)c2cccc3cccc1c23`, 32.6 µM.

Compound `CN1C/C(=C\c2cccc([N+](=O)[O-])c2)C(=O)[C@]2(C1)[C@@H](c1cccc([N+](=O)[O-])c1)[C@@H]1CCCCN1[C@@]21C(=O)c2cccc3cccc1c23` yielded an IC50 of 25.1 µM. Under `CN1C/C(=C\c2cccc(Cl)c2Cl)C(=O)[C@]2(C1)[C@@H](c1cccc(Cl)c1Cl)[C@@H]1CCCCN1[C@@]21C(=O)c2cccc3cccc1c23` stands 24.2 µM; under `CN1C/C(=C\c2ccc(Cl)cc2Cl)C(=O)[C@]2(C1)[C@@H](c1ccc(Cl)cc1Cl)[C@@H]1CCCCN1[C@@]21C(=O)c2cccc3cccc1c23`, 17.3 µM. Under `CN1C/C(=C\c2cccc3ccccc23)C(=O)[C@]2(C1)[C@@H](c1cccc3ccccc13)[C@@H]1CCCCN1[C@@]21C(=O)c2cccc3cccc1c23` stands 3.34 µM; under `CN1C/C(=C\c2cccc3ccccc23)C(=O)[C@]2(C1)[C@@H](c1cccc3ccccc13)[C@@H]1CSCN1[C@@]21C(=O)c2cccc3cccc1c23`, 9.48 µM. With `CN1C/C(=C\c2ccccc2)C(=O)[C@]2(C1)[C@@H](c1ccccc1)[C@@H]1CCCCN1[C@@]21C(=O)c2cccc3cccc1c23` the figure was 18.3 µM; with `CN1C/C(=C\c2ccc(Cl)cc2)C(=O)[C@]2(C1)[C@@H](c1ccc(Cl)cc1)[C@@H]1CCCCN1[C@@]21C(=O)c2cccc3cccc1c23`, 11.6 µM. Take `Cc1ccc(/C=C2\CN(C)C[C@@]3(C2=O)[C@@H](c2ccc(C)cc2)[C@@H]2CCCCN2[C@@]32C(=O)c3cccc4cccc2c34)cc1`: the concentration for half-maximal inhibition (IC50) worked out at 2.24 µM. This IC50 is about 5.2-fold lower than that of the compound before. With `COc1ccc(/C=C2\CN(C)C[C@@]3(C2=O)[C@@H](c2ccc(OC)cc2)[C@@H]2CCCCN2[C@@]32C(=O)c3cccc4cccc2c34)cc1` the figure was 22.3 µM; with `CN1C/C(=C\c2ccc(F)cc2)C(=O)[C@]2(C1)[C@@H](c1ccc(F)cc1)[C@@H]1CCCCN1[C@@]21C(=O)c2cccc3cccc1c23`, 12.6 µM; with `CN1C/C(=C\c2ccc(Br)cc2)C(=O)[C@]2(C1)[C@@H](c1ccc(Br)cc1)[C@@H]1CCCCN1[C@@]21C(=O)c2cccc3cccc1c23`, 14.1 µM. Turning to `CN1C/C(=C\c2ccc([N+](=O)[O-])cc2)C(=O)[C@]2(C1)[C@@H](c1ccc([N+](=O)[O-])cc1)[C@@H]1CCCCN1[C@@]21C(=O)c2cccc3cccc1c23`, the midpoint of inhibition, the IC50, lay at 9.16 µM. This IC50 lies about 1.5-fold lower than the previous one. Under `CN1C/C(=C\c2ccccc2Cl)C(=O)[C@]2(C1)[C@@H](c1ccccc1Cl)[C@@H]1CCCCN1[C@@]21C(=O)c2cccc3cccc1c23` stands 21.3 µM; under `Cc1ccccc1/C=C1\CN(C)C[C@@]2(C1=O)[C@@H](c1ccccc1C)[C@@H]1CCCCN1[C@@]21C(=O)c2cccc3cccc1c23`, 3.86 µM; under `CN1C/C(=C\c2ccc(F)cc2)C(=O)[C@]2(C1)[C@@H](c1ccc(F)cc1)[C@@H]1CSCN1[C@@]21C(=O)c2cccc3cccc1c23`, 15.8 µM. Under `CN1C/C(=C\c2ccc(Br)cc2)C(=O)[C@]2(C1)[C@@H](c1ccc(Br)cc1)[C@@H]1CSCN1[C@@]21C(=O)c2cccc3cccc1c23` stands 20.3 µM. With `CN1C/C(=C\c2ccc([N+](=O)[O-])cc2)C(=O)[C@]2(C1)[C@@H](c1ccc([N+](=O)[O-])cc1)[C@@H]1CSCN1[C@@]21C(=O)c2cccc3cccc1c23` the figure was 4.56 µM; with `CN1C/C(=C\c2ccccc2Cl)C(=O)[C@]2(C1)[C@@H](c1ccccc1Cl)[C@@H]1CSCN1[C@@]21C(=O)c2cccc3cccc1c23`, 12.2 µM. As for `Cc1ccccc1/C=C1\CN(C)C[C@@]2(C1=O)[C@@H](c1ccccc1C)[C@@H]1CSCN1[C@@]21C(=O)c2cccc3cccc1c23`, half-maximal inhibition (IC50) was put at 6.28 µM. Under `CN1C/C(=C\c2ccccc2F)C(=O)[C@]2(C1)[C@@H](c1ccccc1F)[C@@H]1CSCN1[C@@]21C(=O)c2cccc3cccc1c23` stands 12.6 µM.

The compound `CN1C/C(=C\c2ccccc2Br)C(=O)[C@]2(C1)[C@@H](c1ccccc1Br)[C@@H]1CSCN1[C@@]21C(=O)c2cccc3cccc1c23` displayed an IC50 of 10.1 µM.

As for `CN1C/C(=C\c2cccc(F)c2)C(=O)[C@]2(C1)[C@@H](c1cccc(F)c1)[C@@H]1CSCN1[C@@]21C(=O)c2cccc3cccc1c23`, the IC50 worked out at 11.2 µM. With `CN1C/C(=C\c2cccc([N+](=O)[O-])c2)C(=O)[C@]2(C1)[C@@H](c1cccc([N+](=O)[O-])c1)[C@@H]1CSCN1[C@@]21C(=O)c2cccc3cccc1c23` the figure was 8.1 µM; with `CN1C/C(=C\c2cccc(Cl)c2Cl)C(=O)[C@]2(C1)[C@@H](c1cccc(Cl)c1Cl)[C@@H]1CSCN1[C@@]21C(=O)c2cccc3cccc1c23`, 19.1 µM. With `CN1C/C(=C\c2ccc(Cl)cc2Cl)C(=O)[C@]2(C1)[C@@H](c1ccc(Cl)cc1Cl)[C@@H]1CSCN1[C@@]21C(=O)c2cccc3cccc1c23` the figure was 23.2 µM; with `CN1C/C(=C\c2ccccc2)C(=O)[C@]2(C1)[C@@H](c1ccccc1)[C@@H]1CSCN1[C@@]21C(=O)c2cccc3cccc1c23`, 16.5 µM. With `CN1C/C(=C\c2ccc(Cl)cc2)C(=O)[C@]2(C1)[C@@H](c1ccc(Cl)cc1)[C@@H]1CSCN1[C@@]21C(=O)c2cccc3cccc1c23` the figure was 11.1 µM; with `Cc1ccc(/C=C2\CN(C)C[C@@]3(C2=O)[C@@H](c2ccc(C)cc2)[C@@H]2CSCN2[C@@]32C(=O)c3cccc4cccc2c34)cc1`, 1.86 µM. Compound `COc1ccc(/C=C2\CN(C)C[C@@]3(C2=O)[C@@H](c2ccc(OC)cc2)[C@@H]2CSCN2[C@@]32C(=O)c3cccc4cccc2c34)cc1` had an IC50 of 12.3 µM.
